# Results from publication PMC3170513 (Neuropeptides, 2011).
# Starred links: 1 amine or outer side, 2 acyl side, 3 side chain; linkers in the order of their positions; H or OH if unused. Positions of bridges follow the written chain, without caps; N, C: chain ends. Non-standard residues stand in square brackets, D forms with d. Residues, ends and D or L forms follow the SMILES beside them. Chains are numbered I, II in the order given. Actinocin(9to1) = Cc1c2oc3c(C)ccc(C(=O)[*:1])c3nc-2c(C(=O)[*:2])c(N)c1=O; NMeV = CN[C@H](C(=O)O)C(C)C; Sar = CNCC(=O)O
# B1: Nerve Growth Factor 2.5S (protein, UniProt P01139 122-241, looked up)
# Beta-nerve growth factor: SSTHPVFHMGEFSVCDSVSVWVGDKTTATDIKGKEVTVLAEVNINNSVFRQYFFETKCRASNPVESGCRGIDSKHWNSYCTTTHTFVKALTTDEKQAAWRFIRIDTACVCVLSRKATRRG
# modifications: Beta-nerve growth factor
# Assays:
# [1] = system: 125I-CART 61-102 specific binding in PC12 cells; assay: Effect of differentiation; assay type: cell-based, Rat; conditions: 5 nM radioligand; for effect of inhibitors on specific binding, undifferentiated cells: undifferentiated PC12 cells, 6 hours, CHX 10 ug/ml, ActiD 2 mM, CytoD 4 mM, n=3 – 5
# [2] = system: CART binding in nucleus accumbens neurons; conditions: primary cell cultures; ref Jones and Kuhar, 2008; cited from earlier work
# [3] = system: phospho-ERK in PC12 cells; assay: ERK activation; assay type: cell-based, Rat; conditions: for inhibition of CART-induced phospho-ERK (general, in words): pertussis toxin
# [4] = system: voltage dependant Ca++ signaling in hippocampal cells; conditions: hippocampal cells in culture; ref Yermolaieva et al., 2001; cited from earlier work
# [5] = system: ERK signaling in AtT20 cells; conditions: ref Lakatos et al., 2005; cited from earlier work
# [6] = system: CART binding in PC12 cells; conditions: ref Maixnerova et al., 2007, Maletinska et al.; cited from earlier work
molecule,measurement,setting,value
"C[C@@H]1C[C@@H]([C@H](O)CC2CC(=O)NC(=O)C2)C(=O)[C@@H](C)C1 [CHX, Cycloheximide]","effect of inhibitors on specific binding, undifferentiated cells",[1],none of the inhibitors had any effects
"C=C1[C@@H](C)[C@H]2[C@H](Cc3ccccc3)NC(=O)[C@]23[C@H](OC(C)=O)/C=C/[C@@](C)(O)C(=O)[C@@H](C)C/C=C/[C@H]3[C@@H]1O [CytoD, Cytochalasin D]","effect of inhibitors on specific binding, undifferentiated cells",[1],none of the inhibitors had any effects
"Cc1c2oc3c(C)ccc(C(=O)N[C@@H]4C(=O)N[C@H](C(C)C)C(=O)N5CCC[C@H]5C(=O)N(C)CC(=O)N(C)[C@@H](C(C)C)C(=O)O[C@@H]4C)c3nc-2c(C(=O)N[C@@H]2C(=O)N[C@H](C(C)C)C(=O)N3CCC[C@H]3C(=O)N(C)CC(=O)N(C)[C@@H](C(C)C)C(=O)O[C@@H]2C)c(N)c1=O [ActiD, Actinomycin D] (I: T[dV]P[Sar][NMeV] / II: T[dV]P[Sar][NMeV]; ester I:1-I:C, II:1-II:C; linker I:N-II:N via Actinocin(9to1))","effect of inhibitors on specific binding, undifferentiated cells",[1],none of the inhibitors had any effects
Nc1nc2c(ncn2[C@@H]2O[C@H](COP(=O)(O)OP(=O)(O)OP(=O)(O)O)[C@@H](O)[C@H]2O)c(=O)[nH]1 [GTP],specific binding in nucleus accumbens neurons and effect of nucleotides on it,[2],reduced the binding of CART peptide
Pertussin Toxin [PTX],"inhibition of CART-induced phospho-ERK (general, in words)",[3]; PC12 cells,reduced
same,"inhibition of CART-induced phospho-ERK (general, in words)","[3]; PC12 cells, listed as pertussis toxin",blocked
same,"inhibition of CART-induced phospho-ERK, N-differentiated cells","[3]; PTX 200ng/m, at least 16 hrs, N 3 days, CART 61-102 0.3 µM",prevented
same,"inhibition of CART-induced phospho-ERK, N + P-differentiated cells","[3]; PTX 200ng/m, at least 16 hrs, N + P 3 days, CART 61-102 0.3 µM",inhibited
same,"inhibition of CART-induced phospho-ERK, undifferentiated cells","[3]; PTX 200ng/m, at least 16 hrs, undifferentiated PC12 cells, CART 0.3 µM",inhibited
same,effect of PTX alone on phospho-ERK,"[3]; PTX alone vs control, PC12 cells",no inhibitory effect compared to control
same,effect on voltage dependant Ca++ signaling,[4],blocked
same,ERK signaling in AtT20 cells,[5],reduced
B1,"phospho-ERK stimulation, positive controls","[3]; acute treatment, undifferentiated and differentiated PC12 cells, data not shown",increased ERK phosphorylation
same,change of specific 125I-CART 61-102 binding over 1-3 days of differentiation,"[1]; NGF 50ng/mL and/or PACAP 100nM, 1, 2, 3 days, N = 3 – 5",increased
same,specific binding in PC12 cells,[6],increased after differentiation
